Reference: patent US20250120967A1, “TYROSINE KINASES INHIBITORS AND USES THEREOF” (GREAT NOVEL THERAPEUTICS BIOTECH & MEDICALS CORPORATION, priority 2023, published 2025)

How the values were obtained:
Test in all cases: Tyrosine kinase inhibition assay
Type in all cases: biochemical
Conditions in all cases: single concentration 1.0 μM, read-out: percent inhibition
[1] = biological target: T1, AURKC (Aurora C) (Homo sapiens, UniProt Q9UQB9)
T1 sequence (Q9UQB9 1-309): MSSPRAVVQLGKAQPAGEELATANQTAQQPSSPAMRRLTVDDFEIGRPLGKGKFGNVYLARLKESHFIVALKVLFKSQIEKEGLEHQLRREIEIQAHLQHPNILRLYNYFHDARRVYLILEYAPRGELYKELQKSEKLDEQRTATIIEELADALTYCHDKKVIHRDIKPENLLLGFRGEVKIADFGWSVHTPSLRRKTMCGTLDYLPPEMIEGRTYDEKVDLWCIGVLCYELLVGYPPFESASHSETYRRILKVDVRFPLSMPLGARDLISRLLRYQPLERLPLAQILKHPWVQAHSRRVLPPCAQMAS
Method in brief: (§1)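 Single-point screen, 1.0 μM compound, 1% DMSO final; ATP at apparent Km. Buffer: 50 mM HEPES pH 7.5, 0.01% BRIJ-35, 10 mM MgCl2, 1 mM EGTA. Z′-LYTE readout, % inhibition; hit = >80%.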

[2] = biological target: T2, EPHA8 (Homo sapiens, UniProt P29322)
T2 sequence (P29322 28-1005): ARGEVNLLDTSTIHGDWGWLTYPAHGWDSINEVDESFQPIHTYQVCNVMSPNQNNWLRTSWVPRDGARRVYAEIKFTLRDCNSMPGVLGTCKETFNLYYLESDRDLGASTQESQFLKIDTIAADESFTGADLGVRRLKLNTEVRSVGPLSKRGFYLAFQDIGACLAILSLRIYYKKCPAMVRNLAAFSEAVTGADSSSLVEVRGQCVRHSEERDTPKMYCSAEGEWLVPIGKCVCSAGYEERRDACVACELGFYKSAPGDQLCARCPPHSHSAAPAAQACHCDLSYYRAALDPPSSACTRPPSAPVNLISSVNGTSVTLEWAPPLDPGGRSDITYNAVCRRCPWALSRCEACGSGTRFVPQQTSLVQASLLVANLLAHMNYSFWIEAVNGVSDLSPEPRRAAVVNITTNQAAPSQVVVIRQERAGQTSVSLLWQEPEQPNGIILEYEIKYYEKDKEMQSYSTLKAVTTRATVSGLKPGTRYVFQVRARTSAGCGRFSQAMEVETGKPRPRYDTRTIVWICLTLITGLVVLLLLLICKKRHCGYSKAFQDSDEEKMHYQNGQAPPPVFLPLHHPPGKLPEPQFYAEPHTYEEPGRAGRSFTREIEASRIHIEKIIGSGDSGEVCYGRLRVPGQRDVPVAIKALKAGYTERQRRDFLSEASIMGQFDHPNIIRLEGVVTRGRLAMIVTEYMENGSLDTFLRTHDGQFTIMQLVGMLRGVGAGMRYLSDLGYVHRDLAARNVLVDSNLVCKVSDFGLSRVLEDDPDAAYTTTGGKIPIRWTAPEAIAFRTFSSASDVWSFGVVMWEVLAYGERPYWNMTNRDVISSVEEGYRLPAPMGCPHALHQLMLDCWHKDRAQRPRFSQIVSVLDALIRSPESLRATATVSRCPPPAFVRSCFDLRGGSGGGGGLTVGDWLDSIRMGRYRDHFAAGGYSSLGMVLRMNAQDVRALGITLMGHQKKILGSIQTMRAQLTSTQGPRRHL
Method in brief: as §1

[3] = biological target: FYN A (Homo sapiens, UniProt P06241)
Method in brief: as §1

[4] = biological target: IGF1R (Homo sapiens, UniProt P08069)
Method in brief: as §1

[5] = biological target: T3, ITK (Homo sapiens, UniProt Q08881)
T3 sequence (Q08881 1-620): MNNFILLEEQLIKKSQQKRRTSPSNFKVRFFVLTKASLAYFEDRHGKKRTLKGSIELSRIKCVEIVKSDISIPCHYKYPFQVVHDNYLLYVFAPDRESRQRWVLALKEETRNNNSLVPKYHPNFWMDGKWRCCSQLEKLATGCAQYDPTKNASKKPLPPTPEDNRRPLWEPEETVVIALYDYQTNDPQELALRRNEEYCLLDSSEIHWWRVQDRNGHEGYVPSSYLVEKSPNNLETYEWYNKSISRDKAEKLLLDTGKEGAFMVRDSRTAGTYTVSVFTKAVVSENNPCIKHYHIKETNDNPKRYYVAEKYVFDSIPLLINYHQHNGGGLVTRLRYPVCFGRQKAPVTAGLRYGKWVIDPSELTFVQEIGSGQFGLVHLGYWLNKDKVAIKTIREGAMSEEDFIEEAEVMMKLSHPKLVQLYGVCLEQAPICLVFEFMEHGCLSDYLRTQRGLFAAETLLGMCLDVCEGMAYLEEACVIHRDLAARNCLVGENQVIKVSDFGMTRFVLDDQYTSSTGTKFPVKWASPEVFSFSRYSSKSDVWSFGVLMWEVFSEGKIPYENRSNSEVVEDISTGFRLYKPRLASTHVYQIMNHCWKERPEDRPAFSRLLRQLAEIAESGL
Method in brief: as §1

[6] = biological target: JAK2 (Homo sapiens, UniProt O60674)
Method in brief: as §1

[7] = biological target: PIK3C3 (hVPS34) (Homo sapiens, UniProt Q8NEB9)
Method in brief: as §1

PIK3C3 (hVPS34), sequence (Q8NEB9 whole entry): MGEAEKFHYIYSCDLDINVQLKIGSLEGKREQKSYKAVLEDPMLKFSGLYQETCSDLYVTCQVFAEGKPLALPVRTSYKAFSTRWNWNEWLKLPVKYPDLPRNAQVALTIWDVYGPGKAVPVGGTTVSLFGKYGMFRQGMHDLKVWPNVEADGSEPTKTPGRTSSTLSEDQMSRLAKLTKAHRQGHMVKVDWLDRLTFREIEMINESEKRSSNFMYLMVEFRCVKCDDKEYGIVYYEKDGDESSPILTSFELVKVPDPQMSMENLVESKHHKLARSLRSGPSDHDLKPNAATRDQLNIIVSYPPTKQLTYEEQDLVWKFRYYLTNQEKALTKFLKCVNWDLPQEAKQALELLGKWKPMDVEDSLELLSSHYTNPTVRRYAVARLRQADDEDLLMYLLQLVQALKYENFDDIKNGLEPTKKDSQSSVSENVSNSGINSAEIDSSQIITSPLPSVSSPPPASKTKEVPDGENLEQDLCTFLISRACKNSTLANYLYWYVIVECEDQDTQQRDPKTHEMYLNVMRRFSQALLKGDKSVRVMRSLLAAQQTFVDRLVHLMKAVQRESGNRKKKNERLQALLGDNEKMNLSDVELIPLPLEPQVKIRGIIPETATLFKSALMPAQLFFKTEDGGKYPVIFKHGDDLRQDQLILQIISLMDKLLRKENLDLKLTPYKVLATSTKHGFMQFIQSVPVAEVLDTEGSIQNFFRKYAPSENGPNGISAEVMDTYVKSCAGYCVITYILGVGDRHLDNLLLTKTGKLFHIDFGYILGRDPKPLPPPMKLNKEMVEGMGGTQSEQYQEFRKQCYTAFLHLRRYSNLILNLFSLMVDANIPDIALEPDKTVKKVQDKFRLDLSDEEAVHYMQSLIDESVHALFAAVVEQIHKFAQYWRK
FYN A, sequence (P06241 whole entry): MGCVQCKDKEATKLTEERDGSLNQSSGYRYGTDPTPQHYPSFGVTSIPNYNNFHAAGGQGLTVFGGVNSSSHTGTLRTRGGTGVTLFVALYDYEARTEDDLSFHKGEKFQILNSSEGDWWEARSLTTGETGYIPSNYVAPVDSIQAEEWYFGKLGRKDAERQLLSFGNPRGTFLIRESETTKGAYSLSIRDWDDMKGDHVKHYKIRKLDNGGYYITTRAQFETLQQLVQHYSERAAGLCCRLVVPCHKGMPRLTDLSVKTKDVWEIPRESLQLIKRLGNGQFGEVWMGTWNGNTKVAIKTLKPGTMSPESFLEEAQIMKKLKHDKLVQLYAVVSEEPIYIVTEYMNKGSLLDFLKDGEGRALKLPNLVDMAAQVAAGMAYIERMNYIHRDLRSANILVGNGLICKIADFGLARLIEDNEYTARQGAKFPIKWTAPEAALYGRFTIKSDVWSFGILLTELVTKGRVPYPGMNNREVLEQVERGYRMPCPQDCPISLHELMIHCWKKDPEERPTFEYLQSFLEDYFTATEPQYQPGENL
JAK2, sequence (O60674 whole entry): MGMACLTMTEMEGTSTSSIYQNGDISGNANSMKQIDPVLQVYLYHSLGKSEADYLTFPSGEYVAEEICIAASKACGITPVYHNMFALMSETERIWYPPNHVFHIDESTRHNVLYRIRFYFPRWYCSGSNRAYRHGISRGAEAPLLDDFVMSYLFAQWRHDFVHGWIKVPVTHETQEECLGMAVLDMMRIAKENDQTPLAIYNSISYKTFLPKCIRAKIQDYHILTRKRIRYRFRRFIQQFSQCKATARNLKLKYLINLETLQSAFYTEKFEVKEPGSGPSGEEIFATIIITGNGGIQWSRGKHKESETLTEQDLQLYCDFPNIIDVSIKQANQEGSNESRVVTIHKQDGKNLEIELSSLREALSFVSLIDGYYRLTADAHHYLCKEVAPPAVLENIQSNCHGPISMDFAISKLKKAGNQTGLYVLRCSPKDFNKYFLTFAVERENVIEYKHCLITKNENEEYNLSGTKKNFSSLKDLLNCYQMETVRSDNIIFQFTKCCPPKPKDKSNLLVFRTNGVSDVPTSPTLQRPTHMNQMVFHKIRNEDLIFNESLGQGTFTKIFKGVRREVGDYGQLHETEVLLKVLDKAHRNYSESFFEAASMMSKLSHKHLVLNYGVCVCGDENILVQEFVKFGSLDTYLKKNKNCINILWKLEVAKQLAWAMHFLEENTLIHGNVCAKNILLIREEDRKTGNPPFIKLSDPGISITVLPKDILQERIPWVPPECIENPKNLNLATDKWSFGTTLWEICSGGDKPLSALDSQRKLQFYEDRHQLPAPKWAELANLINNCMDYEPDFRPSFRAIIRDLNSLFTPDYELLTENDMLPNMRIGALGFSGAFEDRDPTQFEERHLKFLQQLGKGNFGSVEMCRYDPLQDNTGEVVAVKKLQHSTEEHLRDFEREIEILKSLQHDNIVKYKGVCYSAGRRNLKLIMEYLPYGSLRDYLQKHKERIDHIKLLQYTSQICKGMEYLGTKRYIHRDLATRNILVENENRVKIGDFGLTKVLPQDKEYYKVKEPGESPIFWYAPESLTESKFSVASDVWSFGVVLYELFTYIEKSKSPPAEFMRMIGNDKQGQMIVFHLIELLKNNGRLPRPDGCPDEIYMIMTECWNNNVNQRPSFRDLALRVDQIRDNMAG
IGF1R, sequence (P08069 31-1367): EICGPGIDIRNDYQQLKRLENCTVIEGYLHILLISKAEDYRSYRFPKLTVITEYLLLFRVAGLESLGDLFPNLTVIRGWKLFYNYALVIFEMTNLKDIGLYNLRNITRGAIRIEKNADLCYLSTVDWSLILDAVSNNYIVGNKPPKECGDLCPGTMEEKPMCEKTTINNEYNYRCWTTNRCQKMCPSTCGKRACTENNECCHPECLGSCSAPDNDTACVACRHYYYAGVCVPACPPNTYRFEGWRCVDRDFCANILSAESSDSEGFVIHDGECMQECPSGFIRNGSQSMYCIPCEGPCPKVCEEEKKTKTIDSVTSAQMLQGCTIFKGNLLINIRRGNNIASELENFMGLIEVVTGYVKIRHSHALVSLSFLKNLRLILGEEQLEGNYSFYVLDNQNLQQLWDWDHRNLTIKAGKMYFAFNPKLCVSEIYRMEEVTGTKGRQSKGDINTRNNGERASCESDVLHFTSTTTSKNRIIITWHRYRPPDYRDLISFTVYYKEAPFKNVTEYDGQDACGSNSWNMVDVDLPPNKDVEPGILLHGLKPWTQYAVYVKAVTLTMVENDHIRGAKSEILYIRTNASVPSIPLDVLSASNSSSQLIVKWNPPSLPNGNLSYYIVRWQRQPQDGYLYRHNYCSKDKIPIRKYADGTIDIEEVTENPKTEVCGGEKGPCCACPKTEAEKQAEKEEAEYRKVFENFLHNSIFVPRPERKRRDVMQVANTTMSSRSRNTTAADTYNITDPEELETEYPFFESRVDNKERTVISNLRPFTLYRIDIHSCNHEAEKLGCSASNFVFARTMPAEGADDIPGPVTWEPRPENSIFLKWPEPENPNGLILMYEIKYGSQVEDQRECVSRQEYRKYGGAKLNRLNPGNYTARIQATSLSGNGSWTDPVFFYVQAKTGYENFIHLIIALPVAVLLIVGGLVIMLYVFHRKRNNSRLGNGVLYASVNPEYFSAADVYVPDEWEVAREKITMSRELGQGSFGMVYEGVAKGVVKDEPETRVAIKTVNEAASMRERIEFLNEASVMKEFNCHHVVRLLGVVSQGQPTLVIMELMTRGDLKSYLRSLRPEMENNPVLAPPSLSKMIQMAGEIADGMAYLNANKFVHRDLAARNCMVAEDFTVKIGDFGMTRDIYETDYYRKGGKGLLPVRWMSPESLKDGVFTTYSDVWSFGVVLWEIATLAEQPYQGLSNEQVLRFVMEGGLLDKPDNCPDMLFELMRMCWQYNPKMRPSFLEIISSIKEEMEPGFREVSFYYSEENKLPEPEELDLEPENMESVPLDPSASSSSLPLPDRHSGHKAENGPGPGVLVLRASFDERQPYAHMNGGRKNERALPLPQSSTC

Row | SMILES | inhibition at 1 µM [1] | inhibition at 1 µM [2] | inhibition at 1 µM [3] | inhibition at 1 µM [4] | inhibition at 1 µM [5] | inhibition at 1 µM [6] | inhibition at 1 µM [7]
1 | COc1cc2nccc(Oc3ccc(NC(=O)C4(C(=O)Nc5ccc(F)cc5)CC4)cc3)c2cc1OC [Cabozantinib, reference compound] | 59% | 104% | 74% | 15% | 15% | 24% | 0%
2 | COc1cc2nccc(Oc3ccc(NC(=O)C4(NC(=O)c5ccc(F)cc5)CC4)cc3F)c2cc1OC [Cbo-02, N-(1-((4-((6,7-diMethoxyquinolin-4-yl)oxy)-3-fluorophenyl)carbamoyl)cyclopropyl)-4-fluorobenzamide] | 74% | 42% | 30% | 13% | 8% | 6% | 1%
3 | COc1cc2nccc(Oc3ccc(NC(=O)C4(NC(=O)c5ccc(F)cc5)CC4)cc3F)c2cc1Oc1ccc(N)cc1F [Cbo-10] | 63% | 76% | 47% | 27% | 25% | -1% | -5%
4 | COc1cc2nccc(Oc3ccc(NC(=O)C4(NC(=O)c5ccc(F)cc5)CC4)cc3F)c2cc1Oc1c(F)cc(N)cc1F [Cbo-14] | 59% | 82% | 57% | 35% | 28% | 1% | 6%
5 | COc1cc2nccc(Oc3ccc(NC(=O)C4(C(=O)Nc5ccc(F)cc5)CC4)cc3F)c2cc1Oc1ccc(N)cc1F [Cbo-23] | 41% | 100% | 70% | 52% | 54% | 58% | -4%
